Measured values published in patent US9938250B2, “Antifibrotic effects of oxetanyl sulfoxides” (University of Pittsburgh—Of the Commonwealth System of …, priority 2015, dated 2018).
“Also recorded” adds a separate entry of the source.

Columns and labels:
[1] = discussion, comparison of DMSO with MMS-350; cited from earlier work
[2] = Aqueous solubility, statement only; assay type: physicochemical
[3] = test system: endothelial and alveolar type II cells; details: cells cultured from lung tissues of mice following thoracic irradiation; Kalash et al In vivo 2013; cited from earlier work
[4] = test system: primary human fibroblasts; test: TGFβ-induced fibrotic markers in primary human lung fibroblasts, immunoblotting; assay type: cell-based
Method: All tissues were obtained under a protocol approved by the Institutional Review Board of the University of Pittsburgh and with written consent. Primary human fibroblasts were cultured from the lung tissues of normal donors and patients undergoing lung transplantation. Fibroblasts were grown in Dulbecco's modified Eagle's medium (DMEM) supplemented with 10% fetal bovine serum (FBS), 100 U/mL penicillin, […] streptomycin and […] amphotericin B, and maintained at 37° C. in 5% CO2 humidified incubator. Three strains of normal primary human fibroblasts were plated on 6-well plates at a seeding density of 2.5×10^5 cells per well. Cells were serum starved for 6-16 h and treated with vehicle, TGFβ (10 ng/mL), MMS-350 (0.5 mg/mL), or TGFβ+MMS-350. Experiments using KRL507-031 were performed similarly. The cell lysates and culture supernatants were harvested 72 h after treatment and analyzed by immunoblotting.
Fibroblasts were rinsed with 1× PBS, scraped into 100 μL of 2×-sodium dodecyl sulfate (SDS) sample buffer, and boiled for 5 min. Equal protein amounts of cell lysates or supernatants were resolved on 10-12% sodium dodecyl sulfate polyacrylamide (SDS-PAGE) gels. Proteins were transferred to 0.2 μm nitrocellulose membranes (Whatman, Germany) and blocked with 5% nonfat dry milk in TBS-Tween 20 for 1 h at room temperature. Membranes were incubated with primary antibodies overnight at 4° C. followed by horseradish peroxidase-conjugated secondary antibodies for 1 h at room temperature. Signals were detected with enhanced chemiluminescence (Perkin Elmer Life Sciences, Inc., Boston, Mass.) and imaged with the FluorChem E digital imaging system from Protein Simple (Santa Clara, Calif.). Results were analyzed using the accompanying software Alphaview.

experimental mice = details: cited from earlier work
C57BL/6J mice = test: Bleomycin-induced pulmonary fibrosis in mice; assay type: in vivo
Method: Pulmonary fibrosis was induced in male 6- to 8-week-old C57BL/6J mice by intratracheal administration of 1 mg/kg of Bleomycin (Enzo) in a total volume of 50 uL. Mice were orally administered either 200 uL of PBS or MMS-350 (2%) on a daily basis and lungs were harvested after 5 and 14 days. Right lungs were fixed in 10% neutralized formalin and paraffin embedded. Left lungs were frozen for hydroxyproline assay and total RNA extraction.
Six-micrometer sections of paraffin-embedded mouse lung tissues were stained with H&E and images were taken on an Olympus Provis III microscope (Olympus America Inc.) with identical settings.
Hydroxyproline assay. The hydroxyproline content of mouse lung tissues obtained on day 14 was measured as described (41) and adjusted by lung weight.
Frozen mouse lung tissues obtained on day 5 were placed in 1.5 mL of RNase free Red Bead Lysis Kit tubes (Next Advance) containing 500 uL of TRIzol® Reagent (Life Technologies) and homogenized using BBX24 Bullet Blender® (Next Advance). Total RNA was extracted and purified with RNeasy Mini Kit (Qiagen). Reverse transcription was performed with SuperScript II (Invitrogen) followed by quantitative polymerase chain reaction (PCR) amplification with the TaqMan method (ABI Prism 7300; Applied Biosystems). Premixed PCR primers and TaqMan probes for mouse collagen 1A2 and GAPDH were obtained from Applied Biosystems. Gene expression levels were normalized to GAPDH and compared with the 2^−ΔΔCt method.

[5] = TGFβ 10 ng/mL + MMS-350 0.5 mg/mL vs TGFβ1 alone, 72 h

C[S+](C)[O-] [DMSO, dimethyl sulfoxide, reference compound]
log P (lipophilicity) [1]: -1.4

CC1(C[S+]([O-])CC2(C)COC2)COC1 [MMS-350, 3,3′-Sulfinylbis(methylene)bis(3-methyloxetane)]
aqueous solubility [2]: exquisite aqueous solubility; also recorded: exceptionally high aqueous solubility | pro-fibrotic gene expression [3]: reduce pro-fibrotic gene expression | CTGF secreted protein [4, 5]: significantly decreased | IGFBP3 (BP3) secreted protein [4, 5]: significantly decreased | collagen 1α1 (Col1) protein [4, 5]: significantly decreased | fibronectin (FN) protein [4, 5]: significantly decreased | α-SMA protein (marker of fibroblast activation) [4, 5]: significantly decreased | anti-fibrotic activity on delayed addition ([4]; compound added 30 min to 6 h after TGFβ): profound anti-fibrotic activity | mitigation of ionizing irradiation (experimental mice; Goff et al 2013): mitigator of ionizing irradiation | radiation-induced pulmonary fibrosis (experimental mice; Kalash et al Radiat Res 2013): ameliorate radiation-induced pulmonary fibrosis | survival of irradiated mice (experimental mice; Kalash et al Radiat Res 2013): increase survival | log P (lipophilicity) [1]: −0.7 | Collagen α2I mRNA levels in lung (C57BL/6J mice; MMS-350 (2%) oral daily, day 5): reduced | hydroxyproline levels in lung (C57BL/6J mice; MMS-350 (2%) oral daily, day 14): significant reduction | lung fibrosis, histology (H&E) (C57BL/6J mice; bleomycin 1 mg/kg intratracheal, MMS-350 (2%) 200 uL oral daily, day 14): ameliorated fibrosis histologically | overall survival (C57BL/6J mice; bleomycin + MMS-350, bleomycin-treated mice 62.5%): 87.5% | toxicity (C57BL/6J mice; given orally): no toxicity | weight loss (C57BL/6J mice; vs mice treated with bleomycin alone, data not shown): less weight loss
